Experimental data reported in US6479532B1, “Antifungal compositions” (Fujisawa Pharmaceutical Co., Ltd., priority 1999, dated 2002).
Where a name gives a salt, the structure may show the parent alone. Marks after values point to notes of the source that are not given here.

Key:
Assay type in all cases: cell-based
Candida albicans YU-1200 = test: Agar plate dilution assay (checker board), PY + LC; details: YU1200, 48 h, drug alone, test strain a, 30° C., 2 days
Description: (§1) Sabouraud's glucose agar (glucose 2%) Candida albicans was cultured in Sabouraud's broth medium (glucose 2%) at30° C. for 24 hours and the resulting culture was diluted 10-fold with the same medium as above (10^5 cells/ml) and used. Using ethyl alcohol for PY and dimethyl sulfoxide (DMSO) for LC, a 1 mg/ml solution of each drug was respectively prepared. Then, the solution was diluted to a predetermined concentration using 20% ethyl alcohol as diluent for PY and 10% DMSO as diluent for LC. For the determination of inhibitory activity, 0.5 ml of a PY solution and 0.5 ml of an LC solution, each adjusted to a predetermined concentration were blended with 9 ml of Sabouraud's glucose agar medium to prepare drug-containing plates (checker board method). Each plate was inoculated with a microbial suspension of predetermined concentration (cells or spores/ml) by the stamping method. Trichophyton spp. were cultured at 25° C. for 2 weeks and Candida spp. were cultured at 30° C. for 2 days. Then, the growth of each test strain was investigated. The FIC index was calculated from the MIC value of PY or LC as used alone or PY and LC as used in combination.

Candida albicans 12012 [1] = test: Agar plate dilution assay (checker board), PY + LC; details: 48 h, drug alone, test strain b, 30° C., 2 days
Description: as §1

Trichophyton rubrum 7030 [2] = test: Agar plate dilution assay (checker board), PY + LC; details: Trichophyton rubrum, 7030, 336 h
Description: (§2) Sabouraud's glucose agar (glucose 2%)
(§3) With Trichophyton spp., each strain was cultured on a Sabouraud's glucose agar (glucose 2%) slant at 25° C. for 2˜3 weeks. Then, about 3˜5 ml of physiological saline supplemented with 0.1% (w/v) Tween 80 and sterilized was added to the above slant culture of the test strain and conidia were liberated by scratching the slant surface with a platinum loop. The collected conidial suspension was filtered through a fine-mesh metal sieve to remove hyphal masses and, then, centrifuged at 3000×g for 10 minutes to concentrate the conidia. The concentrate was resuspended in the same sterile saline solution as above, the conidia were counted with a hemocytometer, and the suspension was adjusted to a predetermined conidial population (10^5 spores/ml).
(§4) Using ethyl alcohol for PY and dimethyl sulfoxide (DMSO) for LC, a 1 mg/ml solution of each drug was respectively prepared. Then, the solution was diluted to a predetermined concentration using 20% ethyl alcohol as diluent for PY and 10% DMSO as diluent for LC.
(§5) For the determination of inhibitory activity, 0.5 ml of a PY solution and 0.5 ml of an LC solution, each adjusted to a predetermined concentration were blended with 9 ml of Sabouraud's glucose agar medium to prepare drug-containing plates (checker board method).
(§6) Each plate was inoculated with a microbial suspension of predetermined concentration (cells or spores/ml) by the stamping method. Trichophyton spp. were cultured at 25° C. for 2 weeks and Candida spp. were cultured at 30° C. for 2 days. Then, the growth of each test strain was investigated.
(§7) The FIC index was calculated from the MIC value of PY or LC as used alone or PY and LC as used in combination.

Trichophyton rubrum 7010 [3] = test: Agar plate dilution assay (checker board), PY + LC; details: Trichophyton rubrum, 7010, 336 h
Description: as §2, §3, §4, §5, §6, §7

Candida albicans 12012 [4] = test: Fungicidal effect, viable cell count after 24 h in broth
Description: Medium used: Sabouraud's (glucose 2%) broth medium
Test strain: Candida albicans 12012
Inoculum size: about 10^4 cells/ml (1% of a 24-hour culture using Sabouraud's broth medium at 30° C.)
To one part by volume of a drug solution prepared at a concentration 10 times the predetermined concentration was added 9 parts by volume of the inoculated Sabouraud's broth medium, followed by mixing. The mixture was incubated at 30° C. for 24 hours and the MIC was determined.
Furthermore, 0.1 ml samples were taken from the test microbial suspensions of varying concentrations and inoculated onto Sabouraud's (glucose 2%) agar plates using Conradi's spreader.
After 2 days of culture at 30° C., the colonies formed were counted and the number of remaining viable cells per 0.1 ml was determined.

Trichophyton rubrum 7030 [5] = test: Agar plate dilution assay (checker board), PY + BTF
Description: as §3, §6, §7
(§8) For Trichophyton spp., the same medium as used in Test Example 1 was used.
(§9) With Trichophyton spp., the procedure of Test Example 1 was repeated.
(§10) A 1 mg/ml solution of each drug was prepared by using ethyl alcohol for PY or dimethyl sulfoxide (DMSO) for BTF and diluted to a predetermined concentration using 20% ethyl alcohol as diluent for PY or 10% DMSO as diluent for BTF.
(§11) In the case of Trichophyton spp., 0.5 ml of a PY solution and 0.5 ml of a BTF solution, both of predetermined concentration, were blended with 9 ml of the medium to prepare a drug-containing agar plate and the procedure of test Example 1 was repeated.
(§12) Calculation of the FIC index was also performed in the same manner as in Test Example 1.

Trichophyton rubrum 7005 = test: as above
Description: as §3, §6, §7, §8, §9, §10, §11, §12

[6] = test system: Staphylococcus epidermidis 15001; test: as above; details: drug alone, test strain g, 37° C., 20 hours
Description: For the general bacterium (S. epidermidis), Mueller Hinton agar medium was used. The general bacterium was cultured in Mueller Hinton broth medium at 37° C. for 20 hours and the culture was diluted 100-fold with the same medium (10^6 cells/ml) and used. A 1 mg/ml solution of each drug was prepared by using ethyl alcohol for PY or dimethyl sulfoxide (DMSO) for BTF and diluted to a predetermined concentration using 20% ethyl alcohol as diluent for PY or 10% DMSO as diluent for BTF. In the case of the general bacterium, Mueller Hinton agar medium was used to prepare plates and the procedure of Test Example 1 was repeated. After 20 hours of culture at 37° C., the growth of the test organism was investigated. Calculation of the FIC index was also performed in the same manner as in Test Example 1.

Candida albicans 16010 = test: Agar plate dilution assay (checker board), PY + TF; details: 48 h, drug alone, test organism h, 30° C., 2 days
Description: Mueller Hinton agar medium was used for Staphylococcus spp. and Sabouraud's glucose agar (glucose 2%) medium was used for the fungi. Candida albicans was cultured in Sabouraud's broth medium (glucose 2%) at 30° C. for 24 hours and the culture was diluted 10-fold (10^5 cells/ml) with the same medium and used. A 1 mg/ml solution of each drug was prepared using ethyl alcohol for PY or dimethyl sulfoxide (DMSO) for TF and diluted to a predetermined concentration by using 20% ethyl alcohol as diluent for PY or 10% DMSO as diluent for TF. For the determination of the growth-inhibitory effects of drugs on test organisms, drug-containing plates were prepared by blending 0.5 ml of a PY solution and 0.5 ml of a TF solution, both of predetermined concentration, with 9 ml of said medium. The plates were inoculated with the microbial suspensions (cells or spores/ml) by the stamping technique. Trichophyton spp. were cultured at 25° C. for 2 weeks, Candida spp. at 30° C. for 2 days, and Staphylococcus spp. at 37° C. for 20 hours. Then, the growth of each test organism was investigated (checker board method). The FIC index was calculated from the MIC value of PY or TF alone or the two drugs used in combination.

[7] = test system: Staphylococcus epidermidis 15001; test: Agar plate dilution assay (checker board), PY + TF; details: drug alone, test organism l, 37° C., 20 hours
Description: (§13) Mueller Hinton agar medium was used for Staphylococcus spp. and Sabouraud's glucose agar (glucose 2%) medium was used for the fungi. Staphylococcus spp. were cultured in Mueller Hinton broth medium at 37° C. for 18˜20 hours and diluted 100-fold with the same medium (about 10^6 cells/ml) and this dilution was used as the inoculum. A 1 mg/ml solution of each drug was prepared using ethyl alcohol for PY or dimethyl sulfoxide (DMSO) for TF and diluted to a predetermined concentration by using 20% ethyl alcohol as diluent for PY or 10% DMSO as diluent for TF. For the determination of the growth-inhibitory effects of drugs on test organisms, drug-containing plates were prepared by blending 0.5 ml of a PY solution and 0.5 ml of a TF solution, both of predetermined concentration, with 9 ml of said medium. The plates were inoculated with the microbial suspensions (cells or spores/ml) by the stamping technique. Trichophyton spp. were cultured at 25° C. for 2 weeks, Candida spp. at 30° C. for 2 days, and Staphylococcus spp. at 37° C. for 20 hours. Then, the growth of each test organism was investigated (checker board method). The FIC index was calculated from the MIC value of PY or TF alone or the two drugs used in combination.

[8] = test system: Staphylococcus aureus FP5; test: Agar plate dilution assay (checker board), PY + TF; details: drug alone, test organism k, 37° C., 20 hours
Description: as §13

Trichophyton rubrum 7030 [9] = test: Agar plate dilution assay (checker board), PY + TF
Description: (§14) Mueller Hinton agar medium was used for Staphylococcus spp. and Sabouraud's glucose agar (glucose 2%) medium was used for the fungi.
as §3
(§15) A 1 mg/ml solution of each drug was prepared using ethyl alcohol for PY or dimethyl sulfoxide (DMSO) for TF and diluted to a predetermined concentration by using 20% ethyl alcohol as diluent for PY or 10% DMSO as diluent for TF.
(§16) For the determination of the growth-inhibitory effects of drugs on test organisms, drug-containing plates were prepared by blending 0.5 ml of a PY solution and 0.5 ml of a TF solution, both of predetermined concentration, with 9 ml of said medium.
(§17) The plates were inoculated with the microbial suspensions (cells or spores/ml) by the stamping technique. Trichophyton spp. were cultured at 25° C. for 2 weeks, Candida spp. at 30° C. for 2 days, and Staphylococcus spp. at 37° C. for 20 hours. Then, the growth of each test organism was investigated (checker board method).
(§18) The FIC index was calculated from the MIC value of PY or TF alone or the two drugs used in combination.

Trichophyton rubrum 7010 [10] = test: Agar plate dilution assay (checker board), PY + TF
Description: as §14, §3, §15, §16, §17, §18

[11] = drug concentration 3.13 μg/ml, class symbol
[12] = drug concentration 6.25 μg/ml, class symbol

With `N#C/C(=C1/SCC(c2ccccc2Cl)S1)n1ccnc1` (centres unmarked) [LC, Lanoconazole] as the molecule, how does the MIC (Candida albicans YU-1200) read?
The MIC was 12.5 µg/mL.

And the MIC (Candida albicans 12012 [1])?
Its MIC is 25 µg/mL.

And the MIC (Trichophyton rubrum 7030 [2])?
Its MIC is 0.0125 µg/mL.

What about the MIC (Trichophyton rubrum 7010 [3]) of the same molecule?
The MIC was 0.025 µg/mL.

And the Viable cell count (Candida albicans 12012 [4]; [11])?
Its Viable cell count is “∞ (∞: 10^3˜10^4)”.

What about the Viable cell count (Candida albicans 12012 [4]; [12]) of the same molecule?
Its Viable cell count is “∞ (∞: 10^3˜10^4)”.

And the Viable cell count (Candida albicans 12012 [4]; drug concentration 12.5 μg/ml)?
Its Viable cell count is 876 CFU/0.1 ml.

What about the Viable cell count (Candida albicans 12012 [4]; drug concentration 25 μg/ml) of the same molecule?
Its Viable cell count is 308 CFU/0.1 ml.

With Pyrrolnitrin as the molecule, how does the Viable cell count (Candida albicans 12012 [4]; [11]) read?
Its Viable cell count is “∞ (∞: 10^3˜10^4)”.

And the Viable cell count (Candida albicans 12012 [4]; [12])?
Its Viable cell count is “∞ (∞: 10^3˜10^4)”.

What about the Viable cell count (Candida albicans 12012 [4]; drug concentration 12.5 μg/ml) of the same molecule?
The Viable cell count was 1012 CFU/0.1 ml.

What about the Viable cell count (Candida albicans 12012 [4]; drug concentration 25 μg/ml) of the same molecule?
Its Viable cell count is 1 CFU/0.1 ml.

Which results are given for `CN(Cc1ccc(C(C)(C)C)cc1)Cc1cccc2ccccc12` [BTF, Butenafine Hydrochloride]?
MIC (Trichophyton rubrum 7030 [5]): 0.025 µg/mL; MIC (Trichophyton rubrum 7005): 0.025 µg/mL; MIC [6]: 25 µg/mL

`CN(C/C=C/C#CC(C)(C)C)Cc1cccc2ccccc12` [TF, Terbinafine Hydrochloride] was tested. Which MIC (Candida albicans 16010) did it give?
The MIC was 50 µg/mL.

And the MIC [7]?
Its MIC is 25 µg/mL.

What about the MIC [8] of the same molecule?
Its MIC is 50 µg/mL.

And the MIC (Trichophyton rubrum 7030 [9]; 336 h, drug alone, test organism j, Trichophyton rubrum 7030, 25° C., 2 weeks, read-out: MIC)?
Its MIC is 0.0125 µg/mL.

And the MIC (Trichophyton rubrum 7010 [10]; 336 h, drug alone, test organism i, Trichophyton rubrum 7010, 25° C., 2 weeks, read-out: MIC)?
The MIC was 0.0125 µg/mL.

For `O=[N+]([O-])c1c(Cl)cccc1-c1c[nH]cc1Cl` [PY, Pyrrolnitrin], which MIC (Candida albicans 16010) is on record?
The MIC was 25 µg/mL.

And the MIC (Trichophyton rubrum 7030 [5])?
The MIC was 0.1 µg/mL.

What about the MIC (Trichophyton rubrum 7005) of the same molecule?
Its MIC is 0.1 µg/mL.

And the MIC (Candida albicans YU-1200)?
The MIC was 12.5 µg/mL.

What about the MIC (Candida albicans 12012 [1]) of the same molecule?
The MIC was 25 µg/mL.

What about the MIC (Trichophyton rubrum 7030 [2]) of the same molecule?
The MIC was 0.2 µg/mL.

And the MIC (Trichophyton rubrum 7010 [3])?
Its MIC is 0.2 µg/mL.

And the MIC [7]?
The MIC was 12.5 µg/mL.

And the MIC [8]?
The MIC was 25 µg/mL.

What about the MIC [6] of the same molecule?
The MIC was 25 µg/mL.

And the MIC (Trichophyton rubrum 7030 [9]; Trichophyton rubrum, 7030, 336 h)?
The MIC was 0.39 µg/mL.

And the MIC (Trichophyton rubrum 7010 [10]; Trichophyton rubrum, 7010, 336 h)?
The MIC was 0.2 µg/mL.
